Where “and” joins values, the source holds several entries; their conditions need not be identical. Identical values can stand only once. Like-named read-outs stand apart in the source and are kept apart here. Blank lines part the entries; values can stand above or below the molecule they belong to.
Assays:
γ-globin [1] = assay: Fetal globin (γ-globin mRNA, HbF) induction in phlebotomized anemic baboons; assay type: in vivo, baboons (Papio hamadryas anubis); conditions: for increase of fetal hemoglobin (HbF) protein levels above levels produced by erythroid stress alone: Desloratidine 0.6 mg/kg orally
Description: (§1) Studies to evaluate pharmacokinetic properties and γ-globin induction were performed in juvenile baboons (Papio hamadryas anubis). Briefly, animals were chronically phlebotomized on a daily basis to achieve stable anemia, maintaining a total hemoglobin level of 7.0 to 7.5 g/dl. Candidate compounds were administered intravenously or orally once daily in single doses for pharmacokinetic studies, or once daily in single doses, 4-5 days per week for 4-5 weeks, for pharmacodynamic studies. […] Levels of γ-globin mRNA expression and globin chain synthesis were assessed in baboons before and during treatment with test compounds. A washout period between administrations of different compounds in the same baboon was provided.
(§2) Chronically catheterized baboons were phlebotomized daily to create chronic anemia with total hemoglobin levels (Hb) between 7.0 to 7.5 g/dl which simulates the expanded erythropoiesis and anemia in sickle cell disease and beta thalassemia. Blood counts were drawn and total Hb (hemoglobin) and reticulocytes were analyzed on a hemavet analyzer. Fetal globin mRNA was analyzed by RT-PCR and proportions for f-cells were analyzed by flow cytometry. […] Desloratidine (0.6 mg/kg) was administered for 4 days following a washout period. Blood counts were obtained at least 3 days/week.
Baboons HL-25 and HD50 were phlebotomized daily to create anemia with erythroid expansion. When stably anemic, Desloratidine (0.6 mg/kg) was administered orally, fetal hemoglobin (HbF) protein levels were assayed.

γ-globin [2] = conditions: in humans, about 3-fold less than in baboons; cited from earlier work
γ-globin gene promoter = assay: High throughput screen: LCR-HS2 γ-globin gene promoter EGFP reporter cell assay; assay type: cell-based, human; conditions: pilot screen plate, fold increase relative to NC (negative control)
Text: FIG. 1B is a schematic illustration showing an illustration of the method of the high throughput screening assay (HTS) with the cell construct comprising a locus control region (LCR) linked to the y-globin gene promoter and enhanced GFP (EGFP). A compound which activates γ-globin promoter will induce gene expression of EGFP which can be detected by a suitable detector.
A human cell-based assay which was previously used in low throughput assays, utilizing a 1.4-kilobase (kb) KpnI-BglII fragment of the HS2 of the locus control region (LCR) linked to the γ-globin gene promoter and the enhanced green fluorescent protein (EGFP) reporter gene, was adapted for high throughput screening and employed as the primary screen (FIG. 1A). Cytotoxic activity was assayed in a simultaneous counter screen. […] Several hits were immediately eliminated from further development as potential hemoglobinopathy therapeutics because of cytotoxicity (e.g., Idarubicin) or undesirable off-target effects, but nonetheless validated the HTS itself and were validated in secondary confirmatory assays as highly-potent HbF-inducers. […]

[3] = tested on: γ-globin reporter cell line; assay: Cytotoxicity counter screen run simultaneously with the HTS; assay type: cell-based, human; conditions: simultaneous counter screen of the HTS
γ-globin mRNA [4] = assay: γ-globin mRNA in cultured primary human erythroid progenitors (BFU-e), real-time PCR; assay type: cell-based
Description: Erythroid progenitors were cultured from cord blood CD34+ cells. […] Each compound was tested in three different cultures. […] On day 14, RNA was extracted from cultured erythroid cells, and relative quantification PCR was performed. Briefly, cDNA was generated from equal amounts of total RNA extracted using The PerfectPure RNA Purification Kit (5 Prime Inc Gaithersburg, Md.). Real-time PCR was performed using an ABI 7500 Real-Time PCR system (Applied Biosystems, Foster City, Calif.). Levels of globin mRNA were calculated by the ΔΔCt method. […] GAPDH levels were used for standardization. Western blotting Nuclear extract of K562 cells and 14-day-old BFU-e were analyzed by electrophoresis using 5-24% gradient SDS-polyacrylamide mini-gels (BIORAD Laboratories. Hercules Calif.). Proteins in the gels were transferred to Immobilon-P membranes. Blots were then incubated with BCL11A polyclonal (Novus Biologicals, Littleton Co) or mouse monoclonal (Santa Cruz Biotechnology, Santa Cruz Calif.) antibodies, after washing blots were incubated with anti-rabbit IgG-horseradish peroxidase secondary antibody (ECL, Little Chalfont Buckinghamshire UK). BCL11A bands were detected on the X-ray film using Western Lightning Reagents (Perking Elmer Inc, Waltham, Mass.).

γ-globin mRNA [5] = assay: γ-globin mRNA gene expression in K562 cells; assay type: cell-based; conditions: FIGS. 4A and 4B, K562 cells; Resveratrol 30 μM, desloratadine 50 μM, NSC 50 μM, Benserazine 5 μM
CB BFU-E cells = assay: CB BFU-E cell proliferation (cells/colony); conditions: FIG. 8
Description: Fetal globin-inducing activity in human erythroid progenitors was assessed. Human erythroid progenitors were cultured from peripheral blood samples, exposed to the test compounds at varying concentrations and for varying durations and analyzed for globin chain mRNA ratios. Erythroid progenitors were cultured from cord blood CD34+ cells. Briefly, CD34+ cells in the human cord blood were separated using a Ficoll-paque density gradient. CD34+ cells were cultured in H4230 medium containing 2 mM L-glutamine, 1% Methylcellulose in Iscove's Medium, 30% Fetal Bovine Serum, 1% Bovine Serum Albumin and 10^-4 M β-mercaptoethanol. Methylcellulose H4230 medium was supplemented with EPO (0.5 U/ml) and IL-3 (20 ng/ml) to support BFU-e growth. Cells were cultured in […] mini-dishes and incubated in a humidified atmosphere containing 5% CO2, at 37° C. Different concentrations of the test compounds were added at the time the cultures were established. Each compound was tested in three different cultures. BFU-e colonies grown in mini-dishes were counted on day 14 and harvested for mRNA analysis.

[6] = tested on: red blood cell production; assay: Total hemoglobin and hematocrit in phlebotomized anemic baboons; assay type: in vivo, baboons (Papio hamadryas anubis); conditions: FIG. 12B; MS-275 3 mg/m^2 for 4 days and 2 weeks vs ST20 2 and 4 days; desloratadine 0.6 mg/kg for two days
Description: as §1, §2
Baboon 1509 (weight 10.9 kg) was phlebotomized to induce anemia and marrow expansion, similar to the hemoglobin disorders.

red blood cells = assay: Adult human subject with alpha thalassemia trait given desloratidine; assay type: in vivo; conditions: 5 mg/day once per day, within 4 weeks
Description: Desloratidine was administered to an adult human subject with alpha thalassemia trait at a standard allergy treatment dose of 5 mg/day total, once per day. […] This is an unexpected and rapid rise in red blood cell levels in a mildly anemic subject. Accordingly, the inventors have discovered that desloratidine can be used to increase red blood cells in a subject at a dose of […] in order to increase the red blood levels in a subject in need of treatment. In some embodiments, the subject who is administered desloratidine is selected to have a low red blood count, or is anaemic or has a cytopenia as disclosed herein.

γ-globin mRNA [7] = assay: γ-globin mRNA in cultured primary human erythroid progenitors (BFU-e), real-time PCR; assay type: cell-based; conditions: for fetal globin mRNA, Mean: vs untreated control cultures from the same subject
γ-globin [8] = assay: Fetal globin (γ-globin mRNA, HbF) induction in phlebotomized anemic baboons; assay type: in vivo, baboons (Papio hamadryas anubis)
[9] = Desloratadine 3 uM, Cord Blood progenitors
[10] = Desloratadine 3 uM, Hemoglobin disorder progenitors

Structure (SMILES): CCC(C)(C)C(=O)[O-].[Na+] [ST20, sodium 2,2-dimethylbutyrate]
Increase in γ-globin mRNA above baseline (γ-globin [1]; Baboon HD50, ST20 oral 150 mg/kg): 310% | time of treatment after which fetal globin (HbF) mRNA increased (γ-globin [1]; ST-20, same baboon as desloratidine): 2 weeks | dose required to increase HbF expression (γ-globin [1]; in baboons): 50 to 150 mg/kg | dose required to increase HbF expression (γ-globin [2]): 20 to 50 mg/kg

fold induction of the γ-globin promoter (γ-globin gene promoter): 8 fold
Structure (SMILES): CC(=O)[C@]1(O)Cc2c(O)c3c(c(O)c2[C@@H](O[C@H]2C[C@H](N)[C@H](O)[C@H](C)O2)C1)C(=O)c1ccccc1C3=O [Idarubicin, idarubicin]
cytotoxicity (reason for elimination from further development) [3]: cytotoxicity

Structure (SMILES): Clc1ccc2c(c1)CCc1cccnc1C2=C1CCNCC1 [Desloratadine, 8-Chloro-6,11-dihydro-11-(4-piperidinylidene)-5H-benzo[5,6]cyclohepta[1,2-b]pyridine]
% induction of γ-globin mRNA gene expression (γ-globin mRNA [4]; FIG. 4C, HFU-E (burst-forming units-erythroid) cells, Resveratrol 30 μM, desloratadine 50 μM, NSC 50 μM, Benserazine 5 μM): most significant % increase | effect in increasing % of γ-globin mRNA expression (γ-globin mRNA [4]; FIG. 6, BFU-e cells, Desloratadine 3 μM, Benserazide 3 μM, NSC5397 0.6 μM): greatest effect | % induction of γ-globin mRNA gene expression (γ-globin mRNA [5]): most significant % increase | number of blood cells per colony (CB BFU-E cells): increase the number of blood cells per colony | increase of fetal hemoglobin (HbF) protein levels above levels produced by erythroid stress alone (γ-globin [1]; Baboon HD50): 170% | increase of fetal hemoglobin (HbF) protein levels above levels produced by erythroid stress alone (γ-globin [1]; Baboon HL25): 193% | fetal globin mRNA (γ-globin [1]; Benserazide 1 or 3 mg/kg in baboon 1509, MS-275 and desloratidine): induced | γ-globin mRNA expression in blood compared with positive control ST20 (150 mg/kg) (γ-globin [1]; FIG. 12A, MS-275 3 mg/m^2 for 4 days and 2 weeks, desloratadine 0.6 mg/kg for two days vs ST20 after 2 or 4 days): more effective | time of treatment to detected fetal globin induction and increased HbF (γ-globin [1]; desloratidine, same baboon as ST-20): ≤ 4 days | blood total hemoglobin (Hb) levels compared with positive control ST20 (150 mg/kg) [6]: significantly more effective | Hemoglobin after treatment (red blood cells; increased from 10): 11.5 g/gl | hematocrit after treatment (red blood cells; increased from 30%): 35% | responses (cultures with induced fetal globin mRNA) (γ-globin mRNA [7]; [9]): 4/4 responses | fetal globin mRNA, Mean (γ-globin mRNA [7]; [9]): 323 % of control | responses (cultures with induced fetal globin mRNA) (γ-globin mRNA [7]; [10]): 3/3 responses | fetal globin mRNA, single subjects (γ-globin mRNA [7]; Desloratadine 3 uM, Hemoglobin disorder progenitors (subjects)): 121 % of control and 123 % of control and 274.2 % of control | fetal globin mRNA, Mean (γ-globin mRNA [7]; [10]): 175 % of control | responses (cultures with induced fetal globin mRNA) (γ-globin mRNA [7]; Desloratadine 3 uM, Normal progenitors): 1 response | fetal globin mRNA, Mean (γ-globin mRNA [7]; Desloratadine 3 uM, Normal progenitors (ABM), 1 response): 1098 % of control | γ-globin mRNA induction (γ-globin mRNA [7]; cultured primary human erythroid progenitors, concentrations pharmacologically achievable in humans): up to 6 fold | Increase in γ-globin mRNA above baseline (γ-globin [8]; Baboon HD50, Desloratadine oral 0.55 mg/kg): 350% | Increase in γ-globin mRNA above baseline (γ-globin [8]; Baboon HD50, Desloratadine oral 0.55 mg/kg, listed as Desloratidine): 350% | Increase in γ-globin mRNA above baseline (γ-globin [8]; Baboon HL25, Desloratadine oral 0.55 mg/kg): 386% | Increase in γ-globin mRNA above baseline (γ-globin [8]; Baboon HL25, Desloratadine oral 0.55 mg/kg, listed as Desloratidine): 386%
